Laboratory results: patent publication US5120718A, “Candida acid protease inhibiting compounds” (priority 1991, dated 1992)
Counter-ions that a name gives are not always drawn. Where a SMILES comes first, the peptide text is derived from it. [ ]: non-standard residue; d: D form. The star is where a group is joined. Sta = CC(C)C[C@H](N)[C@@H](O)CC(=O)O; Isovaleryl = CC(C)CC(=O)*

Legend:
[1] = target: T1, Candida albicans acid protease (Candida albicans, UniProt P0DJ06); experiment: In vitro inhibitor assay, microtiter assay with fluorogenic substrate A78331; assay type: biochemical, Candida albicans ATCC10231
T1 construct: endogenous in cells; host or cells: Candida albicans ATCC10231 (proteinase secreted into the culture medium, purified in house)
T1 sequence (P0DJ06 57-398): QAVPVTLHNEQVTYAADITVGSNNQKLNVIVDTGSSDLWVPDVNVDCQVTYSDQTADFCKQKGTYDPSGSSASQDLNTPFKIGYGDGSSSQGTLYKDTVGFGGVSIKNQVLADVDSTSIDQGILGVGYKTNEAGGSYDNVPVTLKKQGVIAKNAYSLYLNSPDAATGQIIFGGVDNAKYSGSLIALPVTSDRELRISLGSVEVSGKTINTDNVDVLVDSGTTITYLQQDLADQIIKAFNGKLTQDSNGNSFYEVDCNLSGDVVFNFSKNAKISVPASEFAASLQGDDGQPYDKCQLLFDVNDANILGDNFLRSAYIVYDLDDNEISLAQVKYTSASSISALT
Protocol: Isolation and Purification of Candida albican Acid Protease Organism and growth conditions. Candida albicans ATCC10231 was grown overnight in Sabouraud broth (Difco) at 30° C. Cells were centrifuged at 10,000xg for 10 min (4° C.) and the cell pellet washed once with 10 mM phosphate buffered saline (PBS), pH7.0. Washed cells (6×10^6 colony forming units per mL) were grown in yeast nitrogen base without ammonium sulfate or amino acids (Difco), plus 2% glucose and 0.1% casein (nitrogen source) at 37° C.
Proteinase isolation. […] Cells were then harvested at 10,000xg for 20 min (4° C.) and the supernatant filtered through a 0.2μ acetate filter unit (Nalgen). The filtrate was concentrated on an Amicon concentrator (PM30 or YM10 membrane, 75 mm) and 30 mL of the concentrate was loaded onto a Cibacron blue F3GA-6% agarose (Pierce Chem.) column (1.5x44cm) equilibrated with 10 mM sodium citrate, pH 6.5, containing lmM EDTA and 0.02% sodium azide (Ray, T. L., and Payne, C. D. Infection and Immunity 58:508-514, 1990). Bovine serum albumin (BSA) was used as substrate to monitor the column for proteinase activity and to determine total proteolytic units. One BSA proteolytic unit was defined as an optical density (750 nm wavelength) increase of 0.100 under incubation conditions of 37° C. for 60 min (Remold, H., Fasold, H., and Staib, F. Biochimica et Biophysica Acta I67:399-406, 1968). […] Proteinase purity and molecular weight was determined by the Phast-gel (12.5% acrylamide) electrophoresis system (Pharmacia). Protein was determined by the Lowry method (Lowry, O. H., Rosenbrough, N. J., Farr, A. L., and Randall, R. J. Journal of Biological Chemistry 193:263-275, 1951). A fluorogenic substrate, A78331, may also be used to monitor proteinase production and purification. This substrate, DABCYL-Gaba-[…]EDANS (Holzman, T. F., Chung, C. C., Edalji, R., Egan, D. A., Gubbins, E. J., Rueter, A., Howard, G., Yang, L. K., Pederson, T. M., Krafft, G. A., and Wang, G. T. Journal of Protein Chemistry 9:663-672, 1990) contains the fluorescent EDANS group, [5-(2-aminoethyl)-amino]naphthalene-1-sulfonic acid, which is quenched by the DABCYL group, 4-(4-dimethyl-aminophenylazo)benzoic acid, as long as it is part of the molecule (Matayoshi, E. D., Wang, G. T., Krafft, G. A., and Erickson, J. Science 247:954-958, 1990). Proteolysis of this compound by the fungal proteinase releases Thr-EDANS, which when activated at 340 nm fluoresces at 490 nm with the same intensity as equimolar EDANS. Activity is expressed in terms of nmol EDANS released from 32 μM A78331 under incubation conditions of 22° C. for 60 min.
In Vitro Inhibitor Assay Method
Microtiter assay. The assay for inhibitors of C. albicans acid proteinase was done in microtiter trays with the fluorogenic substrate A78331. […] The reaction mixture consisted of 5μL test compound or dimethyl sulfoxide and 45μL of fungal proteinase (0.13 BSA proteolytic units or 0.13 nmol EDANS released) in 50 mM sodium citrate, pH 4.5, which was preincubated at 22° C. for 30 min. The reaction was started with the addition of 50μL fluorogenic substrate in citrate buffer and the incubation was continued at 22° C. for 90 min. The reaction was terminated with 150μL pepstatin (final concentration of 1μM) and 210μL samples were transfered to microfluor plates for fluorescence quantitation in a luminescence spectrophotometer (Perkin-Elmer model LS-50). The excitation wavelength was 340 nm and the emission was monitored at 490 nm (430 nm filter employed). Inhibition was expressed as % change in relative intensity from the dimethyl sulfoxide control group (no inhibitor). IC50's were determined from plots of log dose versus % inhibition from control.

[2] = system: Candida acid protease; conditions: background art; cited from earlier work

CCCCNC(=O)[C@H](C[C@H](O)[C@H](CC1CCCCC1)NC(=O)[C@H](CCCC)N1CCN(C(=O)N2CCN(C)CC2)[C@H](Cc2ccccc2)C1=O)C(C)C [Example 1, (2S)-2-((3R)-3-Benzyl-4-N-(4-methylpiperazin-1-yl-carbonyl)-2-keto-piperazin-1-yl}-hexanoic acid Amide of (2R,4S,5S)-5-amino-6-cyclohexyl-4-hydroxy-2-isopropylhexanoyl N-(n-Butyl)amide Hydrochloride]
IC50 [1]: 1.3 nM

CCCCNC(=O)[C@H](C[C@H](O)[C@H](CC1CCCCC1)NC(=O)[C@H](CCCC)N1C[C@@H](Cc2ccccc2)N(S(=O)(=O)c2ccc(C)cc2)CC1=O)C(C)C [Example 3, (2S)-2-{(3R)-3-Benzyl-4-N-(4-methylbenzene-sulfonyl)-6-keto-piperazin-1-yl}-hexanoic acid Amide of (2R,4S,5S)-5-Amino-6-cyclohexyl-4-hydroxy-2-isopropylhexanoyl N-(n-Butyl)amide]
IC50 [1]: 30.1 nM

CCCCNC(=O)[C@H](C[C@H](O)[C@H](CC1CCCCC1)NC(=O)[C@H](CCCC)N1CCN(S(=O)(=O)c2ccc(OC)cc2)[C@H](Cc2ccccc2)C1=O)C(C)C [Example 5, (2S)-2-{(3R)-3-Benzyl-4-N-(4-methoxybenzene-sulfonyl)-2-keto-piperazin-1-yl)-hexanoic acid Amide of (2R,4S,5S)-5-Amino-6-cyclohexyl-4-hydroxy-2-isopropylhexanoyl N-(n-Butyl)amide]
IC50 [1]: 13.3 nM

CCCC[C@@H](C(=O)N[C@@H](CC1CCCCC1)[C@@H](O)[C@@H](O)CC(C)C)N1CCN(S(=O)(=O)c2ccc(NC)cc2)[C@H](Cc2ccccc2)C1=O [Example 11, (2S)-2-{(3R)-3-Benzyl-4-N-(4-(methylamino)benzene-sulfonyl)-2-keto-piperazin-1-yl}-hexanoic acid Amide of (2S,3R,4S)-2-Amino-1-cyclohexyl-3,4-dihydroxyl-6-methylheptane]
IC50 [1]: 85 nM

CCCC[C@@H](C(=O)N[C@@H](CC1CCCCC1)[C@@H](O)C[C@@H](C(=O)NCCCN1CCOCC1)C(C)C)N1CCN(C(=O)N2CCN(C)CC2)[C@@H](Cc2ccccc2)C1=O [Example 12, (2S)-2-{(3S)-3-Benzyl-4-N-(4-methylpiperazin-1-yl-carbonyl)-2-keto-piperazin-1-yl}-hexanoic acid Amide of (2R,4S,5S)-5-Amino-6-cyclohexyl-4-hydroxy-2-isopropylhexanoyl N-3-(N-Morpholinyl)propyllamide]
IC50 [1]: 3.8 nM

CCCCNC(=O)[C@H](C[C@H](O)[C@H](CC1CCCCC1)NC(=O)[C@H](CCCC)N1CCN(S(=O)(=O)N2CCN(C)CC2)[C@@H](Cc2ccccc2)C1=O)C(C)C [Example 13]
IC50 [1]: 2.7 nM

CCCCNC(=O)[C@H](C[C@H](O)[C@H](CC1CCCCC1)NC(=O)[C@H](CCCC)N1CCN(C(=O)N2CCC(OCOC)CC2)[C@@H](Cc2ccccc2)C1=O)C(C)C [Example 14, 2S-(3S-Benzyl-4-N-(4-methoxymethoxypiperidinyl-carbonyl)-2-keto-piperazin-1-yl)-hexanoic acid Amide of (2R,4,5S) -5-Amino-6-cyclohexyl-4-hydroxy-2-isopropylhexanoyl N-(n-Butyl)amide]
IC50 [1]: 4.5 nM

CCCC[C@@H](C(=O)N[C@@H](CC1CCCCC1)[C@@H](O)C[C@@H](C(=O)NCCCN1CCOCC1)C(C)C)N1CCN(S(=O)(=O)N2CCN(C)CC2)[C@@H](Cc2ccccc2)C1=O [Example 15, (2S)-2-{(3S)-3-Benzyl-4-N-(4-methylpiperazin-1-yl-sulfonyl)-2-keto-piperazine-1-yl}-hexanoic acid Amide of (2R,4S,5S)-5-Amino-6-cyclohexyl-4hydroxy-2-isopropylhexanoyl N-[3-(N-Morpholinyl)propyl]amide]
IC50 [1]: 3.8 nM

CCCC[C@@H](C(=O)N[C@@H](CC1CCCCC1)[C@@H](O)C[C@@H](C(=O)NCCCN1CCOCC1)C(C)C)N1CCN(C(=O)N2CCC(OCOC)CC2)[C@@H](Cc2ccccc2)C1=O [Example 16, (2S)-2-{(3S)-3-Benzyl-4-N-(4-methoxymethoxypiperidin-1-yl-carbonyl)-2-keto-piperazin-1-yl}-hexanoic acid Amide of (2R, 4S, 5S)-5-Amino-6-cyclohexyl-4-hydroxy-2-isopropylhexanoyl N-[3-(N-Morpholinyl)propyl]amide]
IC50 [1]: 5 nM

CCCC[C@@H](C(=O)N[C@@H](CC1CCCCC1)[C@@H](O)C[C@@H](C(=O)NCCN(C)C)C(C)C)N1CCN(C(=O)N2CCN(C)CC2)[C@H](Cc2ccccc2)C1=O [Example 17]
IC50 [1]: 6.2 nM

CCCC[C@@H](C(=O)N[C@@H](CC1CCCCC1)[C@@H](O)C[C@@H](C(=O)NCCCN(C)C)C(C)C)N1CCN(C(=O)N2CCN(C)CC2)[C@H](Cc2ccccc2)C1=O [Example 18, (2S)-2{(3R)-3-Benzyl-4-N-(4-methylpiperazin-1-yl-carbonyl)-2-keto-piperazin-1-yl}-hexanoic acid Amide of (2R,4S,5S)-5-Amino-6-cyclohexyl-4-hydroxy-2-isopropylhexanoyl N-[3-(Dimethylamino)propyl]amide]
IC50 [1]: 3.8 nM

CC(C)CC(=O)N[C@H](C(=O)N[C@H](C(=O)N[C@@H](CC(C)C)[C@@H](O)CC(=O)N[C@@H](C)C(=O)N[C@@H](CC(C)C)[C@@H](O)CC(=O)O)C(C)C)C(C)C [Pepstatin A] (Isovaleryl-VV[Sta]A[Sta]-OH)
potency as inhibitor of Candida acid protease (in words) [2]: not very potent inhibitors of the enzyme
specificity (in words) [2]: non-specific

CC(C)C[C@H](NC(=O)[C@@H](NC(=O)N[C@@H](Cc1ccccc1)C(=O)O)[C@@H]1CCN=C(N)N1)C(=O)N[C@H](C=O)Cc1ccccc1 [chymostatin]
potency as inhibitor of Candida acid protease (in words) [2]: not very potent inhibitors of the enzyme
specificity (in words) [2]: non-specific
